{"source": "paper PMC3805374", "about": "(Life sciences, 2013)", "key": {"endogenous DOPR": {"target": "endogenous DOPR (Mus musculus, UniProt P32300)", "sequence (P32300 whole entry)": "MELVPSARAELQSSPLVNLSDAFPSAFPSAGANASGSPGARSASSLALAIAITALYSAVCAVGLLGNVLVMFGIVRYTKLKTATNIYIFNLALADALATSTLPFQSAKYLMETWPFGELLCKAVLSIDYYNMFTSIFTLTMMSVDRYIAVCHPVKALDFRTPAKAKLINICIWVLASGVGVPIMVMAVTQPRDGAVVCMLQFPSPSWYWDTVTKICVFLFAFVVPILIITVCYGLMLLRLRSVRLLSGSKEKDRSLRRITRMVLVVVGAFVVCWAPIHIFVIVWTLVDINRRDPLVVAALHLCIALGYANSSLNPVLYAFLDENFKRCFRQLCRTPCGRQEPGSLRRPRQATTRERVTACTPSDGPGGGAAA", "assay": "DPDPE-stimulated [35S]GTPγS binding to membranes of NG 108-15-HA-D1R cells", "assay_type": "biochemical, mouse neuroblastoma × rat glioma hybrid", "settings": "NG 108-15-HA-D1R cells pretreated with 10 μM for 30 min, n=3"}, "FLAG-mouse DOPR": {"target": "FLAG-mouse DOPR (Mus musculus, UniProt P32300)", "sequence (P32300 whole entry)": "as above", "assay_type": "biochemical", "settings": "CHO-FLAG-DOPR/HA-D1R cells pretreated with 10 μM for 30 min, n=3"}, "FLAG-mDOPR [1]": {"target": "T1, FLAG-mDOPR (Mus musculus, UniProt P32300)", "T1 sequence (P32300 whole entry)": "as above", "assay": "Phosphorylation of the DOPR", "assay_type": "cell-based", "settings": "CHO-FLAG-DOPR/HA-D1R cells; 10 μM for 30 min"}, "FLAG-mDOPR [2]": {"target": "T1, FLAG-mDOPR", "assay_type": "cell-based", "settings": "10 μM pretreatment for 30 min or 24 h"}, "ERK1/2 phosphorylation": {"tested_on": "ERK1/2 phosphorylation", "assay": "Immunoblot analysis of phosphorylated ERK1/2 in CHO-FLAG-DOPR/HA-D1R cells", "assay_type": "cell-based, Chinese hamster", "settings": "10 μM for 30 min"}, "D1R": {"target": "D1R (Rattus norvegicus, UniProt P18901)", "sequence (P18901 whole entry)": "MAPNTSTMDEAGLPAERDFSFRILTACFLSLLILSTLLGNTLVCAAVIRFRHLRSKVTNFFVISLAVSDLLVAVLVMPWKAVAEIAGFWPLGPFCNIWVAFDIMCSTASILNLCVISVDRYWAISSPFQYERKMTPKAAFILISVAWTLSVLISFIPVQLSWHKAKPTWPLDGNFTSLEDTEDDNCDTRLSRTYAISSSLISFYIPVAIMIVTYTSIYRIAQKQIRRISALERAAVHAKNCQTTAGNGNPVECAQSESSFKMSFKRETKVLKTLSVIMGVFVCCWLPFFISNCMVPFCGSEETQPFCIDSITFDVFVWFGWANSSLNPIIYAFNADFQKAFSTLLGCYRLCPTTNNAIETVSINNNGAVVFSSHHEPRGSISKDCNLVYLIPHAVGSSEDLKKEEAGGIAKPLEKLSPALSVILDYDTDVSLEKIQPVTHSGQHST", "assay": "cAMP level in NG108-15/HA-D1R and CHO-FLAG-DOPR/HA-D1R cells", "assay_type": "cell-based", "settings": "NG108-15/HA-D1R cells and CHO-FLAG-DOPR/HA-D1R cells; data not shown"}}}
{"smiles": "Br.C=CCN1CCc2c(cc(O)c(O)c2Cl)C(c2ccccc2)C1", "note": "(racemic) [SKF-82958, (±)-chloro-APB HBr]", "values": [{"measurement": "Basal [35S]GTPγS binding after pretreatment", "setting": "endogenous DOPR", "result": "14.5 ± 1.9", "unit": "fmol/mg protein"}, {"measurement": "Basal [35S]GTPγS binding after pretreatment", "setting": "FLAG-mouse DOPR", "result": "42.6 ± 7.0", "unit": "fmol/mg protein"}, {"measurement": "Phosphorylation of the DOPR", "setting": "FLAG-mDOPR [1]", "result": "did not induce phosphorylation of the DOPR"}, {"measurement": "Effect on total or cell surface DOPRs", "setting": "FLAG-mDOPR [2]", "result": "did not affect total or cell surface DOPRs"}, {"measurement": "ERK1/2 phosphorylation compared with the control", "setting": "ERK1/2 phosphorylation", "result": "produced a marked increase in ERK1/2 phosphorylation"}, {"measurement": "cAMP level", "setting": "D1R", "result": "dose-dependently increased cAMP level"}]}
